According to PMC13144739, “Global analysis of cancer cell responses to USP9X inhibition” (The EMBO Journal, 2026):
Values joined by “and” are separate entries in the source; they are usually repeats but may differ in a detail not shown here. Equal values may be shown once. “Also recorded” adds a separate entry of the source.

Tests used:
DLD-1 cells = test: Colony formation assay, DLD-1; format: cell-based, human; details: 10 µM, 7–12 days
Experimental: (§1) Cells were seeded at low density (200–4000 cells per well) after initial optimisation in a six-well tissue culture-treated plate (Falcon). Twenty-four hours post seeding, media was replaced, and the inhibitor was added. Cells were left to grow into colonies between 7 and 12 days, depending on the cell line. For analysis, the media was removed, and the cells were fixed with 10% (w/v) formalin for 10 min. Colonies were stained with crystal violet (Sigma-Aldrich, 0.5% [w/v] in 20% [v/v] MeOH) for 10 min and washed thrice with distilled H2O. Plates were imaged using the ChemiDoc imaging system (Bio-Rad) and analysed using the ImageJ ColonyArea plugin as described previously (Guzmán et al, [2014]).

USP9X/USP24 chimera = biological target: T1, USP9X/USP24 chimera (Homo sapiens, UniProt Q93008, A1766S/D1761E/K1759R/L1762V/Y1757F); test: Ub-Rho cleavage assay, USP9X/USP24 chimera; format: biochemical
T1 construct: His/SUMO (pOPIN-S vector) (N, cleaved yes); made in house; host or cells: E. coli BL21
Description: An expression construct for the USP9X catalytic domain (aa 1551–1970, […]: Q93008-1), was codon optimised for bacterial expression, synthesised in gBlock format (Integrated DNA Technologies) and cloned into the pOPIN-S vector (Berrow et al, [2007]), which was digested with KpnI and HindIII using In-Fusion™ HD cloning (Takara Clontech). […] For the USP9X Δβ catalytic domain a deletion construct ΔE1924-K1943 and for USP9X/USP24 chimera, a construct with USP9X Y1757-A1766 replaced with the USP24 (NCBI Reference Sequence: NP_056121) aa motif […] was used. All constructs were confirmed by Sanger sequencing (AGRF).
The reaction was stopped through the addition of 10 mM citric acid. The assay was performed in 384-well format with a total reaction volume of 16 µL. Data was collected using the ClarioSTAR plate reader (BMG Labtech) at an emission of 535 nm. […] IC50 values presented in our study are the mean of three independent biological repeats unless indicated otherwise.

MDA-MB-231 cells = test: Colony formation assay, MDA-MB-231; format: cell-based, human; details: 10 µM, 7–12 days
Experimental: as §1

SK-MEL-2 cells = test: Colony formation assay, SK-MEL-2; format: cell-based, human; details: 10 µM, 7–12 days
Experimental: as §1

USP9X catalytic domain [1] = biological target: T2, USP9X catalytic domain (Homo sapiens, UniProt Q93008); test: SPR binding assay; details: SPR, steady state, mean of three repeats; read-out: KD (steady state affinity)
T2 construct: His/SUMO (pOPIN-S vector) (N, cleaved yes); made in house; host or cells: E. coli BL21
T2 sequence (Q93008 1551-1970): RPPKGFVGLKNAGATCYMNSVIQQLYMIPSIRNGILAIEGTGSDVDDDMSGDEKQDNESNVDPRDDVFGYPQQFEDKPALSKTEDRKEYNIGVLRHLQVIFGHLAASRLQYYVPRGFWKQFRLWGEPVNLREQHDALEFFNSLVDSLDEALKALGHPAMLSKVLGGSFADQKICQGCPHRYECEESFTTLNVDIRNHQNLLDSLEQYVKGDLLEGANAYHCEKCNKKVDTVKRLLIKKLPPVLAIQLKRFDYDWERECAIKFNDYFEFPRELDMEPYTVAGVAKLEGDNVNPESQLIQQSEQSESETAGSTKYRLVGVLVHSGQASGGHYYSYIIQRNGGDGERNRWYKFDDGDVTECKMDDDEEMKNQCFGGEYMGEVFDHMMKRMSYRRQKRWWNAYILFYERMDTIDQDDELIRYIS
Experimental: Next, the sample was desalted using PD midiTrap™ G-25 (GE Healthcare) columns following the manufacturer’s instructions and was further purified by SEC, concentrated, and stored at -80 °C. Enzyme activity was tested in a ubiquitin-probe assay. SPR experiments were performed on a Biacore 8 K+ instrument (Cytiva). USP9X catalytic domain with a C-terminal AviTag™ was immobilised in 10 mM HEPES, 150 mM NaCl at pH 7.4 on a Series S Sensor Chip SA (Cytiva) by coupling. […] Running buffer was supplemented with 2% (v/v) DMSO. Multi-cycle kinetics were performed with 120 s associations and 600 s dissociations at 30 µL/min with no further regeneration. Binding constants were determined in Biacore Insight evaluation software (v5.0.18) at steady state, taking the median response over a 5-s window beginning at 10 s before the end of the association phase. Final KD values are the mean of three independent experiments.

[2] = test system: human dermal fibroblasts (HDF); test: IncuCyte live-cell imaging cell death, HDF; format: cell-based; details: 50 µM (Appendix Fig. S4E)
Experimental: Cells were seeded at varying densities (1000–8000 cells per well) after initial optimisation in a 96-well tissue culture-treated plate (Thermo Fisher Scientific). Cells were incubated o/n, and the next day, inhibitors and controls diluted in cell media were added to the cells to a final volume of 200 μL per well. Cell death was measured using PI (Sigma-Aldrich). Cells were imaged with four images per well every 2 h for up to 96 h using the IncuCyte live-cell analysis system (S3, Sartorius). Cell proliferation data were analysed using Microsoft Excel by normalising confluence to control conditions. For cell killing readouts, the number of PI-positive cells was normalised to the control conditions for each timepoint.

USP9X catalytic domain [3] = biological target: T2, USP9X catalytic domain; test: HDX-MS; format: binding; details: 6 s deuterium exchange; 80 µM WEHI-092 or 30 µM FT709
Experimental: Deuterium labelling of USP9X catalytic domain was performed as described previously (Asadollahi et al, [2023]) at 20 °C for periods of 0, 6, 60, 6000 s using a PAL Dual Head HDX Automation manager (Trajan/LEAP) controlled by the ChronosHDX software. […] Quenching was performed by adding 50 µL of the protein mix to 50 µL of quench buffer (50 mM potassium phosphate buffer [pH 2.3], 4 M guanidine hydrochloride and 0.1% [v/v] n-dodecylphosphocholine) at 1 °C. […] To further reduce peptide carryover, n-octyl-β-d-glucopyranoside at 1% (w/w) was added to the pepsin column wash solution (1.5 M guanidine hydrochloride, 4% [v/v] acetonitrile [ACN], 0.8% [v/v] FA). […] For MS, an ion mobility equipped SYNAPT G2-Si mass spectrometer (Waters) was used. Instrument settings were: 3.0 KV capillary and 40 V sampling cone with source and desolvation temperatures of 100 °C and 40 °C, respectively. The desolvation and cone gas flow were at 80 L/h and 100 L/h, respectively. High-energy ramp trap collision energy was from 20 to 40 V. All mass spectra were acquired using a 0.4 s scan time with continuous lock mass (Leu-Enk, 556.2771 m/z) for mass accuracy correction. […] The deuterium uptake values were calculated for each peptide using DynamX 3.0 (Waters). […]

UO-31 cell line = test: NCI-60 cancer cell panel, UO-31; format: cell-based, human; details: 10 µM, 3 days
Experimental: Inhibitors were tested at 10 µM. Data shown is the mean of two technical replicates and is shown relative to the no-drug control, and relative to the time zero number of cells.

[4] = test system: CEP55, MKRN2, EDF1, CHMP2B, DTX3L; test: Immunoblotting of commonly depleted USP9X substrates; format: cell-based, human; details: MiaPaca2 and SK-MEL-2, 24 h; rescued with proteasomal inhibition (MG132)
Experimental: The next day, cells were lysed in DISC lysis buffer (20 mM TRIS/HCl [pH 7.5], 150 mM NaCl, 2 mM EDTA [pH 8.0], 1% [v/v] Triton X 100, 10% [v/v] glycerol) supplemented with 2% (w/v) SDS and PhosSTOP tablets (Roche). To shred DNA, DISC lysates were run through polypropylene columns (Pierce). […] Next, membranes were washed twice in TBS-T and incubated with primary antibodies at 4 °C o/n. Primary antibodies were diluted in antibody dilution buffer (5% [w/v] BSA [pH 5.2, Sigma-Aldrich] in TBS-T with 0.04% [v/v] sodium azide) as per the manufacturer’s instructions. […] Next, membranes were washed four times for 5 min each in TBS-T. Membranes were developed in ECL (Bio-Rad) and imaged using the ChemiDoc imaging system (Bio-Rad). Images were processed using Image Lab software.

T1 sequence (Q93008 1551-1970 Y1757F/K1759R/D1761E/L1762V/A1766S): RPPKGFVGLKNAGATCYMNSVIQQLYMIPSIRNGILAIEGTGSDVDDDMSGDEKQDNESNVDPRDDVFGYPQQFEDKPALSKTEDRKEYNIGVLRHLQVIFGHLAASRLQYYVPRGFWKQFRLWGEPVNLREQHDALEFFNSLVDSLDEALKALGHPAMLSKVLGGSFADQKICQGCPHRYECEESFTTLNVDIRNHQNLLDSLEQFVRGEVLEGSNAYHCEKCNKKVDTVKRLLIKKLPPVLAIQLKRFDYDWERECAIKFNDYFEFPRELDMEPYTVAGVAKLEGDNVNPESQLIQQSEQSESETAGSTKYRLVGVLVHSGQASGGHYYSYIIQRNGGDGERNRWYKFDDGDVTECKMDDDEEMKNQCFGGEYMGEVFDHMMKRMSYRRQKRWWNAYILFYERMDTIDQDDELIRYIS

Question: What does the source list for `Cc1[nH]c2ccc(C(=O)N3CCN(S(=O)(=O)c4ccc5c(c4)OCCO5)CC3)cc2c1C` [WEHI-092]?
Answer: clonogenic potential, DLD-1 (DLD-1 cells): strong decrease in proliferative capacity; activity of USP9X/USP24 chimera in presence of compound (USP9X/USP24 chimera): remained fully active at concentrations up to 10 µM; also recorded: no longer inhibited; clonogenic potential, MDA-MB-231 (MDA-MB-231 cells): strong decrease in proliferative capacity; clonogenic potential, SK-MEL-2 (SK-MEL-2 cells): sensitive; Kd (USP9X catalytic domain [1]): 1000 nM and 1050 nM; toxicity to HDFs [2]: non-lethal and non-toxic; changes in hydrogen-deuterium uptake upon compound binding (USP9X catalytic domain [3]): protection of five overlapping peptides that included residues 1757-1762; cell killing, UO-31 (UO-31 cell line): cell death; MKRN2, CHMP2B and DTX3L protein levels (Western Blot) [4]: led to protein depletion
